{"source": "patent US20260317319A1", "about": "“NOVEL ERGOLINES AND METHODS OF TREATING MOOD DISORDERS” (Gilgamesh Pharma Inc., priority 2023, published 2026)", "key": {"in vitro [1]": {"assay": "in vitro", "assay_type": "in vitro ADME, rat", "details": "RLM (male Sprague-Dawley) 0.50 mg/mL, NADPH 1 mM, 1 μM compound, pH 7.4, 37° C., 60 min", "text": "RLM Stability Pooled RLM from male Sprague-Dawley rats (Xenotech R1000) were used."}, "in vitro [2]": {"assay": "in vitro", "assay_type": "in vitro ADME, human", "details": "HLM 0.50 mg/mL, NADPH 1 mM, 1 μM compound, pH 7.4, 37° C., 60 min"}, "5-HT2A receptor [3]": {"biological_target": "T1, 5-HT2A receptor (Homo sapiens, UniProt P28223)", "T1 sequence (P28223 whole entry)": "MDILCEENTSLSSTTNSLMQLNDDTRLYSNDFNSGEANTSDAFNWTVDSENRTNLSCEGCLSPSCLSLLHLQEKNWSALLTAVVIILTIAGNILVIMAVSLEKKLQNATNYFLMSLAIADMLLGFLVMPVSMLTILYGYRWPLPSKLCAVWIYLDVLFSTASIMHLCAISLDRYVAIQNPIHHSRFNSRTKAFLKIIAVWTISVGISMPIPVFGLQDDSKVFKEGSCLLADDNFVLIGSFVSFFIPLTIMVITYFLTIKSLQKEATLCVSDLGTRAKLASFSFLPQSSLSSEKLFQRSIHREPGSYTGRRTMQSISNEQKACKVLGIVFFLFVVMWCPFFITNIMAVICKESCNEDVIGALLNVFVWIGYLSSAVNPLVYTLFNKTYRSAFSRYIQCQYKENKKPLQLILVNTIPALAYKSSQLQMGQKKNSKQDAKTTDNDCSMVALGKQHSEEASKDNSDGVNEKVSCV", "assay": "biochemical", "assay_type": "binding", "design": "expressed in transfected cells; host or cells: HEK293, stably transfected", "details": "[3H]ketanserin 1 nM; HEK293 stable cell line; 1 h, 25 °C", "in_short": "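Affinity was measured in radioligand binding experiments using [^3H]ketanserin as the labelled ligand, following methods adapted from published procedures.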"}, "in vitro [4]": {"assay": "in vitro", "assay_type": "in vitro ADME, mouse", "details": "MLM (male CD-1) 0.50 mg/mL, NADPH 1 mM, 1 μM compound, pH 7.4, 37° C., 60 min", "text": "MLM Stability Pooled MLM from male CD-1 mice (BIOIVT M00501) were used."}, "in vitro [5]": {"assay": "in vitro", "assay_type": "in vitro ADME, human", "details": "for metabolised: human, microsomes, role: substrate, metabolite 83 formed in HLM, read-out: Metabolite Formation (percent formation of metabolite 83)", "procedure": "The ability of deuteration in compound 68 to attenuate formation of metabolite 83 compared to the same transformation of the non-deuterated compound 18 was also determined.\nHLM Stability. Pooled HLM from adult male and female donors (Corning 452117) were used."}, "Sprague Dawley rats": {"test_system": "Sprague Dawley rats", "assay": "Forced swim test (FST) in rats", "assay_type": "in vivo, rat", "details": "rat FST, dose 20 mg/kg, positive control; average of 3 independent experiments", "procedure": "Compound 1 induced antidepressant-like effects in the forced swim test (FST) in rats with a 23.5-h pre-treatment time (FIG. 2).\nAnimals. Male Sprague Dawley rats, aged 9-10 weeks, were used in this experiment. Animals were housed in groups of 2 under controlled temperature (22±3° C.) and relative humidity (30-70%) conditions, with 12-hour light/dark cycles, and with ad libitum food and water. This study was carried out in strict accordance with the requirements of the Committee for the Purpose of Control and Supervision of Experiments on Animals (CPCSEA), India. All efforts were made to minimize suffering.\nForced Swim Test (FST). […] Rats were handled for about 2 min daily for the 5 days prior to the beginning of the experimental procedure. On the first day of the experiment (i.e., Day 0), post randomization, training swim sessions (Swim 1) were conducted between 12:00 and 18:00 h with all animals by placing rats in individual glass cylinders (46 cm tall×20 cm in diameter) containing 23-25° C. water 30 cm deep for 15 minutes. At the conclusion of Swim 1, animals were dried with paper towels, placed in heated drying cages for 15 minutes, and then returned to their home cages. Animals were then administered the appropriate drug or vehicle treatment(s), as described above. For clarity, a compound administration time of 23.5 h before Swim 2 means 0.5 h after the start of Swim 1 and 0.25 h after the completion of Swim 1 (i.e., immediately after return to the home cage). On Day 1 (i.e., 24 h after start of Swim 1), animals performed the test swim (Swim 2) for a period of 5 min but otherwise under the same conditions as Swim 1. During all swim sessions, the water was changed between each animal.\nBehavioral scoring was conducted by observers who were blind to the treatment groups. Animals were continuously observed during Swim 2 and the total time spent engaging in the following behaviors was recorded: immobile, swimming, and climbing. A rat was judged to be immobile when it remained floating in the water without struggling and was making only those movements necessary to keep its head above water. A rat was judged to be swimming when it made active swimming motions, more than necessary to merely maintain its head above water (e.g., moving around in the cylinder). A rat was judged to be climbing when it made active movements with its forepaws in and out of the water, usually directed against the walls.\nStatistical Analysis. The data points shown represent the mean±standard error of the mean (SEM). Analysis was performed using GraphPad Prism 6. Comparisons between groups were performed using the one-way analysis of variance (ANOVA), followed by Dunnett's test for comparisons to vehicle.\nAdditional disclosed compounds were tested in the forced swim test (FST) in rats according to the procedure described in Example 58 (compounds 18 and 19 administered in 10% DMSO in saline)."}, "5-HT2A receptor [6]": {"biological_target": "T1, 5-HT2A receptor", "assay": "cell-based", "assay_type": "cell-based", "design": "expressed in transfected cells; host or cells: HEK293, stably transfected", "details": "HEK293, agonist, Ca2+ flux, HEK293, max dose; read-out: 5-HT2A % Act @ Max Dose", "in_short": "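Cells plated and incubated overnight at 37 °C, 5% CO2; Fluo-4 Direct dye with probenecid (final 2.5 mM) added, 50 min at 37 °C; test compounds transferred and Ca2+ signal recorded. HEK293 hosts for 5-HT2A/2B, CHO + Gα15 for 5-HT1A.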"}, "5-HT1A receptor": {"biological_target": "T2, 5-HT1A receptor (Homo sapiens, UniProt P08908)", "T2 construct": "expressed in transfected cells; host or cells: CHO cells, stably transfected", "T2 sequence (P08908 1-422)": "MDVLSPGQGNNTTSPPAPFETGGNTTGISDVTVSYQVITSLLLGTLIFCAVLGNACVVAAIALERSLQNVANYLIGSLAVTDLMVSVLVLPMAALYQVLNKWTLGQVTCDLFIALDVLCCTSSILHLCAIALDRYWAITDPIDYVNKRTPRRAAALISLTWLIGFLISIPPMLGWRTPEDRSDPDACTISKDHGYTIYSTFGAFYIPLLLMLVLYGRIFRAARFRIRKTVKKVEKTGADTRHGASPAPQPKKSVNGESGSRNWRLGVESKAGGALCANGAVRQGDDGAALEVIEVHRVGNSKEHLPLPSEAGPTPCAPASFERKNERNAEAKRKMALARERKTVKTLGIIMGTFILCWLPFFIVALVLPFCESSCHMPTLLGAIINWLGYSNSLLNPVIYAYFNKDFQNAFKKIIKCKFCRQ", "assay": "cell-based", "details": "CHO, agonist, Ca2+ flux, CHO cells with Gα15, max dose; read-out: 5-HT1A % Act @ Max Dose", "in_short": "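Receptor agonism was assessed as intracellular calcium mobilization in stably transfected cells, with CHO cells additionally carrying Gα15 for the 5-HT1A readout. Calcium was monitored with Fluo-4 Direct dye.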"}, "5-HT1B receptor": {"biological_target": "T3, 5-HT1B receptor (Homo sapiens, UniProt P28222)", "T3 construct": "expressed in transfected cells", "T3 sequence (P28222 whole entry)": "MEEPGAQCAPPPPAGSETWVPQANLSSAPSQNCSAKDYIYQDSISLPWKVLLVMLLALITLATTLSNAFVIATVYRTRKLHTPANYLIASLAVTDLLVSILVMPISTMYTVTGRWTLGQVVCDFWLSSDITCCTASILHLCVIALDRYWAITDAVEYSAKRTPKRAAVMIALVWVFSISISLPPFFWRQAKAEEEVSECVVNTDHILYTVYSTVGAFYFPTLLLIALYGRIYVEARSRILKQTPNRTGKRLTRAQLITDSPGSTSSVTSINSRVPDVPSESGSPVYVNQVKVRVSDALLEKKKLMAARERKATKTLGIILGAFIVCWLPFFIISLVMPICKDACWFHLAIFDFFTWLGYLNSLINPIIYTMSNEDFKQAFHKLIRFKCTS", "assay": "cAMP accumulation functional assay at 5-HT1B", "assay_type": "cell-based", "details": "agonist, cAMP accumulation, max dose; read-out: 5-HT1B % Act @ Max Dose", "in_short": "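Agonist activity measured as cAMP accumulation in cells stably transfected with human 5-HT1B. Cells incubated 60 min at RT, then detection reagent added for a further 60 min at RT before plate reading.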"}, "[7]": {"biological_target": "T4, Alpha1A adrenergic receptor (Homo sapiens, UniProt P35348)", "T4 construct": "expressed in transfected cells", "T4 sequence (P35348 1-466)": "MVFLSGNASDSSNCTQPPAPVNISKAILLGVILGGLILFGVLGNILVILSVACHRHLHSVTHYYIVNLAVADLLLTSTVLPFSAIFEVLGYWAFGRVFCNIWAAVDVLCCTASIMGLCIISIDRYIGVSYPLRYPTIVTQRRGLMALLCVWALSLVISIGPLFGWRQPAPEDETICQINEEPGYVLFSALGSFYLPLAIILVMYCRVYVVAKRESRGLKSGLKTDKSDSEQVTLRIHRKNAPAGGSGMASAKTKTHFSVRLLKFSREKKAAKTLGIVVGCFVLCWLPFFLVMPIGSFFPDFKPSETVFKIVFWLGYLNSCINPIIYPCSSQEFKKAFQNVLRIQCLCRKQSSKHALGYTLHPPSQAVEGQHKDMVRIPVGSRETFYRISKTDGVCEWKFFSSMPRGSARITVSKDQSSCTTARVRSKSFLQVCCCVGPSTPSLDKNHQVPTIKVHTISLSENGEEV", "assay": "Ca2+ flux functional assay at Alpha1A", "assay_type": "cell-based", "details": "agonist, Ca2+ flux, max dose; read-out: Alpha 1A % Act @ Max Dose", "procedure": "Disclosed compounds were tested for agonist activity at several adrenergic (Alpha1A and Alpha2A) and dopamine (D1 and D2) receptor subtypes using Ca^2+ flux functional assays, with the results summarized in Table 6. Selectivity for the 5-HT2A receptor over these other targets varied depending on the specific target and compound.\nFunctional Assays at Adrenergic and Dopamine Receptors. Agonist activity at Alpha1A, Alpha2A, D1, and D2 receptors was determined using a FLIPR Ca^2+ flux assay at WuXi AppTec (Hong Kong) Limited according to their standard protocols. Briefly, stably transfected cells expressing the receptor of interest were grown and plated in a 384 well plate and incubated at 37° C. and 5% CO2 overnight. A solution of 250 mM probenecid in 1 mL FLIPR assay buffer was prepared fresh. This was combined with a fluorescent dye (Fluo-4 Direct™) to make a final assay concentration of 2.5 mM. Compounds were diluted 1:3.16 for 10 points and 750 nL was added to a 384 well compound plate using ECHO along with 30 μL assay buffer. The fluorescent dye was then added to the assay plate along with assay buffer to a final volume of 40 μL. The cell plate was incubated for 50 min at 37° C. and 5% CO2 and placed into the FLIPR Tetra along with the compound plate. 10 μL of references and compounds were then transferred from the compound plate into the cell plate and the fluorescent signal was read."}, "5-HT2B receptor": {"biological_target": "T5, 5-HT2B receptor (Homo sapiens, UniProt P41595)", "T5 construct": "expressed in transfected cells; host or cells: HEK293, stably transfected", "T5 sequence (P41595 whole entry)": "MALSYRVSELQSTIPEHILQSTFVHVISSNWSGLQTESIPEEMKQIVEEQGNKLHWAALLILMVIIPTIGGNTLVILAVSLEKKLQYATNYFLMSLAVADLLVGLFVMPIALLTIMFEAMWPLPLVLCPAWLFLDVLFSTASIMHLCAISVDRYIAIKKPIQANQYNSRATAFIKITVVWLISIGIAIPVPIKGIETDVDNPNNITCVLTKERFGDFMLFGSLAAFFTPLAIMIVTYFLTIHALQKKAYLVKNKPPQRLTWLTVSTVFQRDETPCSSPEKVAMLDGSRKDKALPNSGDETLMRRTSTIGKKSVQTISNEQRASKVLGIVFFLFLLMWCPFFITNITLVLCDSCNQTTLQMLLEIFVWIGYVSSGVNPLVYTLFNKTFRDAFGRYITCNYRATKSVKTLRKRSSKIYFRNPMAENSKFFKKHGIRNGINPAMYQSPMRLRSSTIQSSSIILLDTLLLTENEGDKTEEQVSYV", "assay": "cell-based", "assay_type": "cell-based", "details": "HEK293, agonist, Ca2+ flux, HEK293, max dose; read-out: 5-HT2B % Act @ Max Dose", "in_short": "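FLIPR Tetra fluorescence read-out of calcium flux after compound addition. Receptor-expressing stable lines were used (HEK293 for 2A/2B; CHO with Gα15 for 1A), dye-loaded with Fluo-4 Direct and 2.5 mM final probenecid, 50 min at 37 °C.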"}}, "note": "Like-named read-outs stand apart in the source and are kept apart here."}
{"compound": "[2H]C([2H])(c1cccc(OC)c1)N1C[C@H](C(=O)N(CC)CC)C=C2c3cccc4[nH]cc(c34)C[C@H]21", "note": "[Compound 68, (6aR,9R)—N,N-diethyl-7-((3-methoxyphenyl)methyl-d2)-4,6,6a,7,8,9-hexahydroindolo[4,3-fg]quinoline-9-carboxamide]", "values": [{"measurement": "microsomal CLint", "setting": "in vitro [1]; rat, microsomes, read-out: Intrinsic clearance (Clint)", "value": 360, "unit": "µL/min/mg"}, {"measurement": "half-life", "setting": "in vitro [1]; rat, microsomes, read-out: half-life (t1/2)", "value": 3.9, "unit": "min"}, {"measurement": "microsomal CLint", "setting": "in vitro [2]; human, microsomes, read-out: Intrinsic clearance (Clint)", "value": 130, "unit": "µL/min/mg"}, {"measurement": "half-life", "setting": "in vitro [2]; human, microsomes, read-out: half-life (t1/2)", "value": 10.6, "unit": "min"}, {"measurement": "Ki", "setting": "5-HT2A receptor [3]", "value": 3.02, "unit": "nM"}, {"measurement": "microsomal CLint", "setting": "in vitro [4]; mouse, microsomes, read-out: Intrinsic clearance (Clint)", "value": 436, "unit": "µL/min/mg"}, {"measurement": "half-life", "setting": "in vitro [4]; mouse, microsomes, read-out: half-life (t1/2)", "value": 3.2, "unit": "min"}, {"measurement": "formation of metabolite 83", "setting": "in vitro [5]; formation of 83 from 68 compared to formation from 18", "value": "substantially attenuated compared to formation of 83 from 18"}, {"measurement": "metabolised", "setting": "in vitro [5]; T = 0", "value": 0.1, "unit": "%"}, {"measurement": "metabolised", "setting": "in vitro [5]; T = 5", "value": 2.9, "unit": "%"}, {"measurement": "metabolised", "setting": "in vitro [5]; T = 15", "value": 4.3, "unit": "%"}, {"measurement": "metabolised", "setting": "in vitro [5]; T = 30", "value": 5.7, "unit": "%"}, {"measurement": "metabolised", "setting": "in vitro [5]; T = 45", "value": 5.8, "unit": "%"}, {"measurement": "metabolised", "setting": "in vitro [5]; T = 60", "value": 6.2, "unit": "%"}]}
{"compound": "CNCCCN1c2ccccc2CCc2ccccc21", "note": "[Desipramine, desipramine, reference compound]", "values": [{"measurement": "Time Immobile", "setting": "Sprague Dawley rats", "value": 60.93, "unit": "s"}]}
{"compound": "CCN(CC)C(=O)[C@@H]1C=C2c3cccc4[nH]cc(c34)C[C@H]2N(CC2CC2)C1", "note": "[Compound 13, (6aR,9R)—N,N-diethyl-7-(cyclopropylmethyl)-4,6,6a,7,8,9-hexahydroindolo[4,3-fg]quinoline-9-carboxamide]", "values": [{"measurement": "half-life (t1/2)", "setting": "in vitro [1]", "value": 27.7, "unit": "min"}, {"measurement": "half-life (t1/2)", "setting": "in vitro [2]", "value": 21.1, "unit": "min"}, {"measurement": "half-life (t1/2)", "setting": "in vitro [4]", "value": 3.7, "unit": "min"}, {"measurement": "Emax", "setting": "5-HT2A receptor [6]", "value": 92.6, "unit": "%"}, {"measurement": "Emax", "setting": "5-HT1A receptor", "value": 83.1, "unit": "%"}, {"measurement": "Emax", "setting": "5-HT1B receptor", "value": 90.4, "unit": "%"}, {"measurement": "Emax", "setting": "[7]", "value": 80.8, "unit": "%"}, {"measurement": "Emax", "setting": "5-HT2B receptor", "value": 91.8, "unit": "%"}]}
